Legend:
Test in all cases: relative viability (nuclei count vs DMSO), 5 days (fraction); higher = more cells survive
[1] = compound: CCn1c(-c2nonc2N)nc2c(C#CC(C)(C)O)ncc(OC[C@H]3CCCNC3)c21 + CC(=O)Nc1cccc(-n2c(=O)n(C3CC3)c(=O)c3c(Nc4ccc(I)cc4F)n(C)c(=O)c(C)c32)c1 [Trametinib] (partner 0.02 µM)
Method in brief: (§1)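 Relative viability equals treated-well nuclei counts divided by vehicle-well nuclei counts. Counts came from 4× images of lung cancer cell lines grown in 1536-well plates for 5 days after pin-tool dosing on the day after seeding. Dosing used one drug alone or a fixed anchor-drug dose plus five library-drug doses (not always all listed) in √10 steps, and values are medians of duplicate plates.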

[2] = compound: CCn1c(-c2nonc2N)nc2c(C#CC(C)(C)O)ncc(OC[C@H]3CCCNC3)c21 + COc1cc2c(Oc3ccc(NC(=O)C4(C(=O)Nc5ccc(F)cc5)CC4)cc3F)ccnc2cc1OCCCN1CCOCC1 [Foretinib] (partner 0.25 µM)
Method in brief: as §1

[3] = compound: CCn1c(-c2nonc2N)nc2c(C#CC(C)(C)O)ncc(OC[C@H]3CCCNC3)c21 + CS(=O)(=O)N1CCN(Cc2cc3nc(-c4cccc5[nH]ncc45)nc(N4CCOCC4)c3s2)CC1 [Pictilisib] (partner 1 µM)
Method in brief: as §1

[4] = compound: CCOC1=CC=CC=C1N=NC2=C(NN(C2=O)C3=NC(=CS3)C4=CC=CC=C4)C [BAM7] + Cc1nc(Nc2ncc(C(=O)Nc3c(C)cccc3Cl)s2)cc(N2CCN(CCO)CC2)n1 [Dasatinib] (partner 0.075 µM)
Method in brief: as §1

Cell Line	relative viability ([1]; first compound 0.01 µM)	relative viability ([1]; first compound 0.03162 µM)	relative viability ([1]; first compound 0.1 µM)	relative viability ([1]; first compound 0.3162 µM)	relative viability ([1]; first compound 1 µM)	relative viability ([2]; first compound 0.01 µM)	relative viability ([2]; first compound 0.03162 µM)	relative viability ([2]; first compound 0.1 µM)	relative viability ([2]; first compound 0.3162 µM)	relative viability ([2]; first compound 1 µM)	relative viability ([3]; first compound 0.01 µM)	relative viability ([3]; first compound 0.03162 µM)	relative viability ([3]; first compound 0.1 µM)	relative viability ([3]; first compound 0.3162 µM)	relative viability ([3]; first compound 1 µM)	relative viability ([4]; first compound 0.5 µM)	relative viability ([4]; first compound 5 µM)	relative viability ([4]; first compound 15.81 µM)	relative viability ([4]; first compound 50 µM)
ChaGo-K-1	0.843	0.997	0.879	0.814	0.78	0.802	0.849	0.852	0.911	0.896	0.824	0.601	0.7	0.756	0.839	0.641	0.523	0.507	0.726
COR-L 105	0.451	0.434	0.437	0.46	0.499	1.01	1	1.04	1.03	1.16	0.428	0.345	0.333	0.549	0.379	0.308	0.407	0.455	0.501
NCI-H1975	0.359	0.393	0.452	0.281	0.21	0.983	1.04	0.937	0.95	0.885	0.335	0.255	0.314	0.235	0.261	0.309	0.341	0.3	0.296
NCI-H1993	0.688	0.493	0.555	0.464	0.507	0.693	0.835	0.785	0.733	0.714	1.03	0.735	0.887	0.866	0.887	0.492	0.541	0.502	0.575
RERF-LC-KJ	0.854	0.818	0.842	0.778	0.835	0.858	0.821	0.921	0.767	0.973	0.578	0.566	0.556	0.567	0.535	0.639	0.539	0.323	0.358
NCI-H23	0.373	0.378	0.433	0.369	0.357	0.971	1.15	1.06	0.918	0.916	0.421	0.375	0.373	0.445	0.417	0.892	0.813	0.732	0.868
HCC-366	0.391	0.312	0.364	0.334	0.293	0.931	0.99	0.975	0.907	0.965	0.235	0.214	0.12	0.131	0.218	0.67	0.675	0.708	0.717
EMC-BAC-2	0.864	–	1.08	0.848	0.913	1.06	1.02	0.952	0.973	1.01	0.563	0.51	0.497	0.493	0.528	0.301	0.366	0.331	0.394
NCI-H2405	0.664	0.683	0.646	0.598	0.604	1.06	1.05	0.948	1.03	1.05	0.407	0.492	–	0.445	0.406	0.195	0.201	0.211	0.243
NCI-H358	0.145	0.133	0.132	0.115	0.104	0.646	0.977	0.657	0.73	0.663	0.332	0.364	0.364	0.318	0.32	0.202	0.217	0.197	0.254
NCI-H1944	0.452	0.449	0.393	0.355	0.401	0.755	0.888	0.821	0.851	0.876	0.357	0.276	0.284	0.35	0.334	0.217	0.234	0.225	0.279
EPLC-272H	0.324	0.284	0.252	0.217	0.315	0.657	0.711	0.675	0.632	0.738	0.287	0.282	0.286	0.301	0.314	0.369	–	0.346	0.434
NCI-H1915	0.293	0.3	0.299	0.281	0.308	1.11	1.1	1.08	1.01	1	0.977	0.941	0.957	0.871	0.979	0.321	0.327	0.279	0.303
NCI-H596	0.797	–	0.821	0.785	0.878	0.895	1	0.744	0.84	0.639	0.398	0.344	0.366	0.377	0.436	0.621	0.644	0.578	0.632
NCI-H322M	0.546	0.508	0.505	0.433	0.511	0.823	0.881	0.879	0.816	0.911	0.448	0.483	0.341	0.476	0.413	0.271	0.287	0.287	0.281
NCI-H2228	0.553	0.449	0.468	0.325	0.197	0.762	0.985	0.767	0.555	0.872	0.295	0.386	0.347	0.216	0.294	0.598	0.639	0.509	0.521
NCI-H647	0.481	0.493	0.475	0.364	0.323	1.26	1.1	1.14	1.16	1.22	0.366	0.468	0.23	0.368	0.44	0.175	0.193	0.203	0.248
SK-MES-1	0.61	0.52	0.569	0.465	0.503	0.908	0.876	1.02	0.819	0.828	0.399	0.351	0.363	0.339	0.314	0.366	0.289	0.3	0.336
NCI-H2170	0.957	0.982	0.9	0.865	1.11	0.987	1.01	0.972	0.996	1.07	0.301	0.296	0.342	0.312	0.281	0.644	0.683	0.731	0.777
NCI-H2085	0.452	0.539	0.439	0.427	0.59	0.857	0.901	0.985	0.994	0.881	0.436	0.437	0.373	0.404	0.462	0.237	0.211	0.229	0.217
SW 1573	0.438	0.553	0.476	0.381	0.33	0.89	0.799	0.812	0.728	0.763	0.432	0.395	0.453	0.447	0.365	0.575	0.65	0.454	0.431
NCI-H727	0.391	0.359	0.336	0.347	0.371	0.833	1.22	0.693	0.877	1.08	0.441	0.355	0.275	0.43	0.315	0.351	–	0.469	0.312
NCI-H441	0.435	0.39	0.452	0.397	0.378	1.08	0.967	0.836	1.16	0.875	0.472	0.494	0.522	0.486	0.466	0.607	0.583	0.71	0.724
LOU-NH91	0.795	0.788	0.802	0.695	0.659	0.929	0.962	0.964	0.861	0.907	0.547	0.501	0.483	0.504	0.526	0.495	0.658	0.535	0.552
NCI-H3122	0.242	0.224	0.236	0.192	0.242	0.923	0.941	0.962	1	0.883	0.606	0.612	0.634	0.598	0.55	0.438	0.835	0.838	0.725
NCI-H460	0.171	0.121	0.145	0.0808	0.105	0.949	1.11	0.979	0.978	1.11	0.426	0.314	0.203	0.306	0.203	0.51	0.622	0.443	0.691
NCI-H650	0.934	0.977	0.938	0.897	1.07	1.01	0.979	0.993	1	1.13	0.867	0.96	0.968	0.521	0.758	0.422	0.49	0.477	0.517
NCI-H661	0.52	0.615	0.521	0.491	0.569	1.01	1.06	1.06	0.935	1.06	0.368	0.564	0.299	0.385	0.401	0.991	0.965	0.759	0.962

— the supplement of paper PMC10307832
